Measurements as given in patent US6914045B2, “Glycopeptide antibiotics” (Wyeth Holdings Corporation, priority 2001, dated 2005).
Values after ≈ are worked out from the molar mass of the structure shown.

Key:
[1] = system: Escherichia coli; experiment: in vitro antibacterial evaluation, MIC by broth dilution; assay type: cell-based; settings: 18 hours at 35° C.
Method in brief: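 Broth dilution MIC per NCCLS M7-A2 in Mueller-Hinton II medium, inoculum 5×10^5 CFU/mL, antibiotic range 64-0.06 μg/mL. MIC taken as lowest concentration inhibiting growth.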

[2] = system: Staphylococcus aureus-SMITH (GC 4543); experiment: acute lethal infection in mice; assay type: in vivo; settings: acute lethal infection, female CD-1 mice, intraperitoneal challenge, intravenous 30 min. after infection, 7 day survival
Method in brief: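 Female CD-1 mice (20±2 g) got an intraperitoneal bacterial challenge lethal to untreated controls within 24–48 hr. Compound was dosed intravenously 30 min after infection, five mice per dose. ED50 was calculated from 7-day survival pooled across 3 tests.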

[3] = anatomic pathology (histopathology of heart and kidney) in mice; assay type: in vivo; settings: CD-1 mice, 20 mg/kg intravenously daily for 9 days, necropsy day 10, microscopic histopathology
Description: Samples of tissues from necropsied mice were formalin-fixed, paraffin-embedded, sectioned, stained with hematoxylin and eosin, and examined microscopically. Histopathologic findings were recorded. These findings were subjectively graded on a scale corresponding to slight, mild, moderate, marked and severe as compared to untreated controls.

[4] = system: Streptococcus sp.; experiment: in vitro antibacterial evaluation, MIC by broth dilution; assay type: cell-based; settings: broth dilution, 18 hours at 35° C.
Method in brief: (§1)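 Read-out: the lowest concentration at which the test strain fails to grow. Serial dilutions (64-0.06 μg/mL) in Muller-Hinton II […], 5×10^5 CFU/mL inoculum, NCCLS M7-A2 procedure.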

[5] = system: Enterococcus sp.; experiment: as above; assay type: cell-based; settings: broth dilution, 18 hours at 35° C.
Method in brief: as §1

[6] = system: Staphylococcus sp.; experiment: as above; assay type: cell-based; settings: broth dilution, 18 hours at 35° C.; for MIC Staphylococcus aureus (GC 1131): strain GC 1131; for MIC Staphylococcus aureus (GC 3053): strain GC 3053; for MIC Staphylococcus aureus (GC 4541): strain GC 4541; for MIC Staphylococcus aureus-SMITH (GC 4543): strain GC 4543; for MIC Staphylococcus aureus (GC 4544): strain GC 4544; for MIC Staphylococcus aureus (GC 4545): strain GC 4545; for MIC Staphylococcus haemolyticus (GC 4546): strain GC 4546; for MIC Coagulase Negative Staphylococcus (GC 4547): strain GC 4547; for MIC Coagulase Negative Staphylococcus (GC 4548): strain GC 4548; for MIC Coagulase Negative Staphylococcus (GC 4549): strain GC 4549; for MIC Coagulase Negative Staphylococcus (GC 4551): strain GC 4551; for MIC Coagulase Negative Staphylococcus (GC 6257): strain GC 6257
Method in brief: as §1

[7] = Enterococcus faecalis (ATCC 29212)
[8] = Enterococcus faecalis (GC 4552)
[9] = Enterococcus faecalis (GC 4553)
[10] = Enterococcus faecalis (GC 6189)

CC(c1ccccc1)C1NC(=O)CNC(=O)C(CO)NC(=O)C(C(O)C2CN(Cc3ccc4ccccc4c3)C(=N)N2C2OC(CO)C(O)C(O)C2O)NC(=O)C(C(O)C2CNC(=N)N2)NC(=O)C(Cc2ccc(OC3OC(CO)C(OC4OC5COC6(OC5C(O)C4O)C4CC5CC(C4)CC6C5)C(O)C3O)cc2)NC1=O (stereo not drawn) [Example 78, Cyclo[glycyl-β-methylphenylalanyl-O-[4-O-[4,6-O-(2-adamantylidene)hexopyranosyl]hexopyranosyl]tyrosyl-3-(2-iminoimidazolidin-4-yl)seryl-3-[3-hexopyranosyl-2-imino-1-(2-naphthylmethyl)-imidazolidin-4-yl]serylseryl]]
MIC Escherichia coli (ATCC 25922) [1]: 128 µg/mL (≈ 81.6 µM)
MIC Escherichia coli (GC 4559) [1]: 128 µg/mL (≈ 81.6 µM)
MIC Escherichia coli (GC 4560) [1]: 4 µg/mL (≈ 2.55 µM)
median effective dose (ED50), Staphylococcus aureus-SMITH (GC 4543) [2]: 2 mg/kg
Anatomical Pathology (Day 10), Heart [3]: 0
Anatomical Pathology (Day 10), Kidney [3]: ++
MIC Streptococcus agalactiae (GC 4564) [4]: 1 µg/mL (≈ 0.638 µM)
MIC Streptococcus pneumoniae (ATCC 6301) [4]: 1 µg/mL (≈ 0.638 µM)
MIC Streptococcus pneumoniae (GC 1894) [4]: 0.25 µg/mL (≈ 0.159 µM)
MIC Streptococcus pneumoniae (GC 4565) [4]: 2 µg/mL (≈ 1.28 µM)
MIC Streptococcus pyogenes (GC 4563) [4]: 0.5 µg/mL (≈ 0.319 µM)
MIC Streptococcus pneumoniae (ATCC 6301) ([4]; strain ATCC 6301): 1 µg/mL (≈ 0.638 µM)
MIC Streptococcus pneumoniae (GC 1894) ([4]; strain GC 1894): 0.25 µg/mL (≈ 0.159 µM)
MIC Streptococcus pyogenes (GC 4563) ([4]; strain GC 4563): 0.5 µg/mL (≈ 0.319 µM)
MIC Streptococcus agalactiae (GC 4564) ([4]; strain GC 4564): 1 µg/mL (≈ 0.638 µM)
MIC Streptococcus pneumoniae (GC 4565) ([4]; strain GC 4565): 2 µg/mL (≈ 1.28 µM)
MIC Enterococcus avium (GC 4558) ([5]; Enterococcus avium (GC 4558)): 4 µg/mL (≈ 2.55 µM)
MIC Enterococcus faecalis (ATCC 29212) [5, 7]: 8 µg/mL (≈ 5.1 µM)
MIC Enterococcus faecalis (GC 4552) [5, 8]: 8 µg/mL (≈ 5.1 µM)
MIC Enterococcus faecalis (GC 4553) [5, 9]: 8 µg/mL (≈ 5.1 µM)
MIC Enterococcus faecalis (GC 4554) ([5]; Enterococcus faecalis (GC 4554)): 16 µg/mL (≈ 10.2 µM)
MIC Enterococcus faecalis (GC 6189) [5, 10]: 16 µg/mL (≈ 10.2 µM)
MIC Enterococcus faecium (GC 2243) ([5]; Enterococcus faecium (GC 2243)): 8 µg/mL (≈ 5.1 µM)
MIC Enterococcus faecium (GC 4556) ([5]; Enterococcus faecium (GC 4556)): 16 µg/mL (≈ 10.2 µM)
MIC Enterococcus faecium (GC 4557) ([5]; Enterococcus faecium (GC 4557)): 2 µg/mL (≈ 1.28 µM)
MIC Enterococcus avium (GC 4558) [5]: 4 µg/mL (≈ 2.55 µM)
MIC Enterococcus faecalis (ATCC 29212) [5]: 8 µg/mL (≈ 5.1 µM)
MIC Enterococcus faecalis (GC 2242) [5]: 16 µg/mL (≈ 10.2 µM)
MIC Enterococcus faecalis (GC 2691) [5]: 16 µg/mL (≈ 10.2 µM)
MIC Enterococcus faecalis (GC 3059) [5]: 16 µg/mL (≈ 10.2 µM)
MIC Enterococcus faecalis (GC 4552) [5]: 8 µg/mL (≈ 5.1 µM)
MIC Enterococcus faecalis (GC 4553) [5]: 8 µg/mL (≈ 5.1 µM)
MIC Enterococcus faecalis (GC 4554) [5]: 16 µg/mL (≈ 10.2 µM)
MIC Enterococcus faecalis (GC 6189) [5]: 16 µg/mL (≈ 10.2 µM)
MIC Enterococcus faecium (GC 2243) [5]: 8 µg/mL (≈ 5.1 µM)
MIC Enterococcus faecium (GC 4556) [5]: 16 µg/mL (≈ 10.2 µM)
MIC Enterococcus faecium (GC 4557) [5]: 2 µg/mL (≈ 1.28 µM)
MIC Enterococcus faecalis (GC 2242) ([5]; strain GC 2242): 16 µg/mL (≈ 10.2 µM)
MIC Enterococcus faecalis (GC 2691) ([5]; strain GC 2691): 16 µg/mL (≈ 10.2 µM)
MIC Enterococcus faecalis (GC 3059) ([5]; strain GC 3059): 16 µg/mL (≈ 10.2 µM)
MIC Staphylococcus aureus (ATCC 29213) ([6]; strain ATCC 29213): 8 µg/mL (≈ 5.1 µM)
MIC Staphylococcus aureus (GC 1131) [6]: 8 µg/mL (≈ 5.1 µM)
MIC Staphylococcus aureus (GC 3051) ([6]; strain GC 3051): 8 µg/mL (≈ 5.1 µM)
MIC Staphylococcus aureus (GC 3053) [6]: 8 µg/mL (≈ 5.1 µM)
MIC Staphylococcus aureus (GC 4541) [6]: 4 µg/mL (≈ 2.55 µM)
MIC Staphylococcus aureus (GC 4542) ([6]; strain GC 4542): 8 µg/mL (≈ 5.1 µM)
MIC Staphylococcus aureus-SMITH (GC 4543) [6]: 4 µg/mL (≈ 2.55 µM)
MIC Staphylococcus aureus (GC 4544) [6]: 8 µg/mL (≈ 5.1 µM)
MIC Staphylococcus aureus (GC 4545) [6]: 8 µg/mL (≈ 5.1 µM)
MIC Staphylococcus haemolyticus (GC 4546) [6]: 4 µg/mL (≈ 2.55 µM)
MIC Coagulase Negative Staphylococcus (GC 4547) [6]: 4 µg/mL (≈ 2.55 µM)
MIC Coagulase Negative Staphylococcus (GC 4548) [6]: 4 µg/mL (≈ 2.55 µM)
MIC Coagulase Negative Staphylococcus (GC 4549) [6]: 8 µg/mL (≈ 5.1 µM)
MIC Coagulase Negative Staphylococcus (GC 4551) [6]: 8 µg/mL (≈ 5.1 µM)
MIC Coagulase Negative Staphylococcus (GC 6257) [6]: 2 µg/mL (≈ 1.28 µM)

CC(c1ccccc1)C1NC(=O)CNC(=O)C(CO)NC(=O)C(C(O)C2CN(Cc3ccc(C(C)(C)C)cc3)C(=N)N2C2OC(CO)C(O)C(O)C2O)NC(=O)C(C(O)C2CNC(=N)N2)NC(=O)C(Cc2ccc(OC3OC(CO)C(OC4OC5COC6(OC5C(O)C4O)C4CC5CC(C4)CC6C5)C(O)C3O)cc2)NC1=O (stereo not drawn) [Example 77]
MIC Escherichia coli (ATCC 25922) [1]: >128 µg/mL
MIC Escherichia coli (GC 4559) [1]: >128 µg/mL
MIC Escherichia coli (GC 4560) [1]: 4 µg/mL (≈ 2.54 µM)
median effective dose (ED50), Staphylococcus aureus-SMITH (GC 4543) [2]: 4 mg/kg
Anatomical Pathology (Day 10), Heart [3]: 0
Anatomical Pathology (Day 10), Kidney [3]: 0
MIC Streptococcus agalactiae (GC 4564) [4]: 1 µg/mL (≈ 0.635 µM)
MIC Streptococcus pneumoniae (ATCC 6301) [4]: 2 µg/mL (≈ 1.27 µM)
MIC Streptococcus pneumoniae (GC 1894) [4]: 0.25 to 0.5 µg/mL
MIC Streptococcus pneumoniae (GC 4565) [4]: 2 to 4 µg/mL
MIC Streptococcus pyogenes (GC 4563) [4]: 1 µg/mL (≈ 0.635 µM)
MIC Streptococcus pneumoniae (ATCC 6301) ([4]; strain ATCC 6301): 2 µg/mL (≈ 1.27 µM)
MIC Streptococcus pyogenes (GC 4563) ([4]; strain GC 4563): 1 µg/mL (≈ 0.635 µM)
MIC Streptococcus agalactiae (GC 4564) ([4]; strain GC 4564): 1 µg/mL (≈ 0.635 µM)
MIC Streptococcus pneumoniae (GC 4565) ([4]; strain GC 4565): 2 to 4 µg/mL
MIC Enterococcus avium (GC 4558) ([5]; Enterococcus avium (GC 4558)): 4 µg/mL (≈ 2.54 µM)
MIC Enterococcus faecalis (ATCC 29212) [5, 7]: 16 µg/mL (≈ 10.2 µM)
MIC Enterococcus faecalis (GC 4552) [5, 8]: 16 µg/mL (≈ 10.2 µM)
MIC Enterococcus faecalis (GC 4553) [5, 9]: 8 µg/mL (≈ 5.08 µM)
MIC Enterococcus faecalis (GC 6189) [5, 10]: 16 µg/mL (≈ 10.2 µM)
MIC Enterococcus faecium (GC 2243) ([5]; Enterococcus faecium (GC 2243)): 8 µg/mL (≈ 5.08 µM)
MIC Enterococcus faecium (GC 4556) ([5]; Enterococcus faecium (GC 4556)): 16 µg/mL (≈ 10.2 µM)
MIC Enterococcus faecium (GC 4557) ([5]; Enterococcus faecium (GC 4557)): 1 to 2 µg/mL
MIC Enterococcus avium (GC 4558) [5]: 4 µg/mL (≈ 2.54 µM)
MIC Enterococcus faecalis (ATCC 29212) [5]: 16 µg/mL (≈ 10.2 µM)
MIC Enterococcus faecalis (GC 2242) [5]: 16 µg/mL (≈ 10.2 µM)
MIC Enterococcus faecalis (GC 2691) [5]: 16 µg/mL (≈ 10.2 µM)
MIC Enterococcus faecalis (GC 3059) [5]: 16 µg/mL (≈ 10.2 µM)
MIC Enterococcus faecalis (GC 4552) [5]: 16 µg/mL (≈ 10.2 µM)
MIC Enterococcus faecalis (GC 4553) [5]: 8 µg/mL (≈ 5.08 µM)
MIC Enterococcus faecalis (GC 4554) [5]: 16 to 32 µg/mL
MIC Enterococcus faecalis (GC 6189) [5]: 16 µg/mL (≈ 10.2 µM)
MIC Enterococcus faecium (GC 2243) [5]: 8 µg/mL (≈ 5.08 µM)
MIC Enterococcus faecium (GC 4556) [5]: 16 µg/mL (≈ 10.2 µM)
MIC Enterococcus faecium (GC 4557) [5]: 1 to 2 µg/mL
MIC Enterococcus faecalis (GC 2242) ([5]; strain GC 2242): 16 µg/mL (≈ 10.2 µM)
MIC Enterococcus faecalis (GC 2691) ([5]; strain GC 2691): 16 µg/mL (≈ 10.2 µM)
MIC Enterococcus faecalis (GC 3059) ([5]; strain GC 3059): 16 µg/mL (≈ 10.2 µM)
MIC Staphylococcus aureus (GC 1131) [6]: 16 µg/mL (≈ 10.2 µM)
MIC Staphylococcus aureus (GC 3053) [6]: 16 µg/mL (≈ 10.2 µM)
MIC Staphylococcus aureus (GC 4541) [6]: 4 to 8 µg/mL
MIC Staphylococcus aureus-SMITH (GC 4543) [6]: 8 µg/mL (≈ 5.08 µM)
MIC Staphylococcus aureus (GC 4544) [6]: 16 µg/mL (≈ 10.2 µM)
MIC Staphylococcus aureus (GC 4545) [6]: 8 µg/mL (≈ 5.08 µM)
MIC Staphylococcus haemolyticus (GC 4546) [6]: 4 to 8 µg/mL
MIC Coagulase Negative Staphylococcus (GC 4547) [6]: 4 µg/mL (≈ 2.54 µM)
MIC Coagulase Negative Staphylococcus (GC 4548) [6]: 4 µg/mL (≈ 2.54 µM)
MIC Coagulase Negative Staphylococcus (GC 4549) [6]: 4 to 8 µg/mL
MIC Coagulase Negative Staphylococcus (GC 4551) [6]: 8 µg/mL (≈ 5.08 µM)
MIC Coagulase Negative Staphylococcus (GC 6257) [6]: 2 µg/mL (≈ 1.27 µM)
